Laboratory results: the supplement of paper PMC10307832

What was measured:
Assay in all cases: relative viability (nuclei count vs DMSO), 5 days (fraction); higher = more cells survive
[1] = compound: CC1=C(C(=O)N2C=CSC2=N1)CCN3CCC(=C(C4=CC=CC=C4)C5=CC=C(C=C5)F)CC3 + CCNC(=O)c1noc(-c2cc(C(C)C)c(O)cc2O)c1-c1ccc(CN2CCOCC2)cc1 [Luminespib] (partner 0.01 µM)
Outline: (§1)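 Relative viability divides the nuclei count in treated wells by that in vehicle wells. Lung cancer cell lines were seeded in 1536-well plates, dosed by pin tool the next day, and fixed and stained after 5 days in one step with final 0.05% Triton X-100, 1% formaldehyde and 1 ug/ml Hoechst. Dosing was a single drug or a fixed anchor-drug dose plus five library-drug doses (not always all listed) in √10 steps, and values are medians of duplicate plates imaged at 4×.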

[2] = compound: CC1=C(C(=O)N2C=CSC2=N1)CCN3CCC(=C(C4=CC=CC=C4)C5=CC=C(C=C5)F)CC3 + Cc1cc(Nc2cc(N3CCN(C)CC3)nc(Sc3ccc(NC(=O)C4CC4)cc3)n2)n[nH]1 [Tozasertib] (partner 0.1 µM)
Outline: as §1

[3] = compound: CC1=C(C(=O)N2C=CSC2=N1)CCN3CCC(=C(C4=CC=CC=C4)C5=CC=C(C=C5)F)CC3 + Cc1nc(Nc2ncc(C(=O)Nc3c(C)cccc3Cl)s2)cc(N2CCN(CCO)CC2)n1 [Dasatinib] (partner 0.075 µM)
Outline: as §1

[4] = compound: CC1=C(C(=O)N2C=CSC2=N1)CCN3CCC(=C(C4=CC=CC=C4)C5=CC=C(C=C5)F)CC3 + Cc1nc(NC(=O)N2CCC[C@H]2C(N)=O)sc1-c1ccnc(C(C)(C)C(F)(F)F)c1 [Alpelisib] (partner 2 µM)
Outline: as §1

Row | Cell Line | relative viability ([1]; first compound 0.08 µM) | relative viability ([1]; first compound 0.253 µM) | relative viability ([1]; first compound 0.8 µM) | relative viability ([1]; first compound 2.53 µM) | relative viability ([1]; first compound 8 µM) | relative viability ([2]; first compound 0.08 µM) | relative viability ([2]; first compound 0.253 µM) | relative viability ([2]; first compound 0.8 µM) | relative viability ([2]; first compound 2.53 µM) | relative viability ([2]; first compound 8 µM) | relative viability ([3]; first compound 0.08 µM) | relative viability ([3]; first compound 0.253 µM) | relative viability ([3]; first compound 0.8 µM) | relative viability ([3]; first compound 2.53 µM) | relative viability ([3]; first compound 8 µM) | relative viability ([4]; first compound 0.08 µM) | relative viability ([4]; first compound 0.253 µM) | relative viability ([4]; first compound 0.8 µM) | relative viability ([4]; first compound 2.53 µM) | relative viability ([4]; first compound 8 µM)
1 | LU99A | 0.274 | 0.262 | 0.282 | 0.205 | 0.259 | 0.299 | 0.272 | 0.268 | 0.307 | 0.197 | 0.507 | 0.544 | 0.57 | 0.551 | 0.422 | 0.47 | 0.47 | 0.496 | 0.621 | 0.456
2 | LXF-289 | 0.513 | 0.713 | 0.599 | 0.839 | 0.529 | 0.219 | 0.265 | 0.16 | 0.193 | 0.155 | 0.276 | 0.18 | 0.214 | 0.209 | 0.189 | 1.06 | 1.07 | 1.08 | 1.03 | 0.917
3 | NCI-H23 | 0.205 | 0.207 | 0.22 | 0.23 | 0.241 | 0.365 | 0.386 | 0.214 | 0.307 | 0.316 | 0.659 | 0.674 | 0.867 | 0.703 | 0.518 | 0.694 | 0.545 | 0.772 | 0.829 | 0.411
4 | NCI-H522 | 1.18 | 1.16 | 1.21 | 1.2 | 0.897 | 0.551 | 0.92 | 0.555 | 0.523 | 0.583 | 0.901 | 0.549 | 0.998 | 0.855 | 0.733 |  |  |  |  | 
5 | NCI-H1299 |  |  |  |  |  |  |  |  |  |  |  |  |  |  |  | 0.997 | 1.09 | 1.08 | 1.03 | 0.54
6 | NCI-H1563 | 0.643 | 0.572 | 0.49 | 0.508 | 0.534 |  |  |  |  |  | 0.502 | 0.531 | 0.485 | 0.5 | 0.5 | 0.82 | 0.909 | 0.879 | 0.885 | 0.779
7 | NCI-H1648 |  |  |  |  |  | 0.391 |  |  | 0.392 | 0.525 |  |  |  |  |  |  |  |  |  | 
8 | NCI-H1650 | 0.182 | 0.204 | 0.196 | 0.188 | 0.189 | 0.402 | 0.428 | 0.463 | 0.372 | 0.363 | 0.436 | 0.324 | 0.297 | 0.405 | 0.263 |  |  |  |  | 
9 | NCI-H1703 |  |  |  |  |  |  |  |  |  |  |  |  |  |  |  | 0.372 | 0.316 | 0.278 | 0.463 | 0.306
10 | NCI-H1792 | 0.354 | 0.444 | 0.585 | 0.379 | 0.349 |  |  |  |  |  | 0.72 | 0.574 | 0.817 | 0.837 | 0.352 | 0.679 | 0.6 | 0.722 | 0.611 | 0.545
11 | NCI-H2342 | 0.657 | 0.791 | 0.789 | 0.66 | 0.619 | 0.559 | 0.492 | 0.585 | 0.504 | 0.431 | 0.255 | 0.304 | 0.291 | 0.306 | 0.247 |  |  |  |  | 
12 | SW 900 | 0.181 | 0.182 | 0.188 | 0.188 | 0.174 | 0.539 | 0.636 | 0.606 | 0.602 | 0.351 | 0.399 | 0.634 | 0.634 | 0.584 | 0.41 |  |  |  |  | 
